# In patent publication US7723376B2, “2-oxo-heterocyclic compounds and pharmaceutical compositions” (Korea Research Institute of Bioscience and Biotechnology, priority 2003, dated 2010):
# Test system: histone deacetylase (HDAC)
# Assay: HDAC Fluorescent Activity Assay/Drug Discovery Kit (Biomol) with nuclear extracts of HeLa cell as HDAC source
# Assay type: biochemical
# Conditions: compounds 0.01 to 10 μM, 25° C., 20 minutes, fluorescence
# Method: Fluorogenic Histone Deacetylase Lysyl Substrate was used as substrate for HDAC and the test is based on the fact that the removal of acetyl group by HDAC activity causes the substrate to occur emmition wavelength in the ranging from 360 nm to 460 nm.
# Various concentrations of the compounds of the present invention ranging from 0.01 to 10 μM were reacted with HDAC enzyme at 25° C. for 20 minutes and equal volume of developer was added thereto. The fluorescence signal was detected at the wavelength in the range 350 to 460 nm using by fluorescence spectrometer.
row,SMILES,HDAC inhibition
1,"O=C(CCC1=CCN(CCCc2ccccc2)C1=O)NO [Example 4, N-hydroxy-3-[2-oxo-1-(3-phenyl-propyl)-2,5-dihydro-1H-pyrrol-3-yl]-propionamide]",AAA

# Test system: PC-3 cells
# Assay: Tumor cell growth inhibition, sulforhodamine B (SRB) staining
# Assay type: cell-based
# Conditions: PC-3 human prostatic carcinoma cells, 48 hrs, absorbance 540 nm, adriamycin as positive control
# Method: PC-3 cells (ATCC, US), human prostatic carcinoma cell line, were cultured in RMPI 1640 supplemented with 10% fetal bovine serum.
# Appropriate concentrations of cells (5×10^4 cells/ml) cultured in RMPI 1640 supplemented with 5% fetal bovine serum were poured into 96-well plate and incubated at 37° C. in 5% CO2 condition. The day after the incubation, PC-3 cells were fixed on Time zero (T0) plate by adding 50 μl/well of 50% trichloroacetic acid and the cell concentration was set to zero point by fixing the cells. In the cells treated with test samples, 50% TCA was added to each wells in 50 ul/well after 48 hrs to fix the cells. The final concentration of adding test compounds were 0.01, 0.03, 0.1, 0.3, 1 μg/ml respectively. Then, each fixed plate was washed, dried and 100 μl/well of 0.4% reaction solution containing sulforhodamine B (SRB) reagent dissolved in 0.1% acetic acid was added thereto to stain the cells. 30 minutes later, the cell was washed with 0.1% acetic acid, dried at room temperature, and 10 mM of TRIS base (pH 10.5) was added thereto to dissolve the staining agent. Finally, the absorbance detected at 540 nm was measured and the value was conversed into percentage comparing with that of control group. IC50 (μg/ml), the concentration of the group required to inhibit the cancer cell growth by 50%, was calculated from the data (AA: IC50's<1, A: IC50's<5, B: IC50's<10 and C: IC50's>10). Also, the inhibiting activity of cell growth was expressed as various symbols in accordance with the potency of examples e.g., AA: closely equivalent (1˜2 times), A: slightly weaker (3˜5 times), B: weaker (5˜10 times), C: very weaker (more than 10 times) than that of adriamycin used as a positive control group.
SMILES,IC50 [µg/mL],Cell growth inhibition
"O=C(CCC1=CCN(CCCc2ccccc2)C1=O)NO [Example 4, N-hydroxy-3-[2-oxo-1-(3-phenyl-propyl)-2,5-dihydro-1H-pyrrol-3-yl]-propionamide]",< 5,–
"COc1ccc(CCCN2CC=C(CCC(=O)NO)C2=O)cc1 [Example 46, N-hydroxy-3-{1-[3-(4-methoxy-phenyl)-propyl]-2-oxo-2,5-dihydro-1H-pyrrol-3-yl]-propionamide]",< 10,–
"CN1CC=C(CCC(=O)NO)C1=O [Example 50, N-hydroxy-3-(1-methyl-2-oxo-2,5-dihydro-1H-pyrrol-3-yl)-propionamide]",< 1,–
"C=CCN1CC=C(CCC(=O)NO)C1=O [Example 51, 3-(1-allyl-2-oxo-2,5-dihydro-1H-pyrrol-3-yl)-N-hydroxy-propionamide]",> 10,–
"O=C(CCC1=CCN(CCc2ccc3ccccc3c2)C1=O)NO [Example 53, N-hydroxy-3-[1-(2-naphthalene-2-yl-ethyl)-2-oxo-2,5-dihydro-1H-pyrrol-3-yl]-propionamide]",< 1,–
"O=C(CCC1=CCN(CCc2cccs2)C1=O)NO [Example 54, N-hydroxy-3-[2-oxo-1-(2-thiophen-2-yl-ethyl)-2,5-dihydro-1H-pyrrol-3-yl]-propionamide]",< 5,–
"O=C(CCC1=CCN(CCCc2ccc(-c3ccccc3)cc2)C1=O)NO [Example 55, 3-[1-(3-biphenyl-4-yl-propyl)-2-oxo-2,5-dihydro-1H-pyrrol-3-yl]-N-hydroxy-propionamide]",< 1,–
"O=C(CCC1=CCN(CCCc2ccc3ccccc3c2)C1=O)NO [Example 56, N-hydroxy-3-[1-(3-naphthalene-2-yl-propyl)-2-oxo-2,5-dihydro-1H-pyrrol-3-yl]-propionamide]",–,AAA
"COc1ccc(CN2CCC=C(CCC(=O)NO)C2=O)c(OC)c1 [Example 57, 3-[1-(2,4-dimethoxybenzyl)-2-oxo-1,2,5,6-tetrahydro-pyridin-3-yl]-N-hydroxy-propionamide]",< 1,–
"O=C(CCC1=CCCN(Cc2ccccc2)C1=O)NO [Example 58, N-hydroxy-3-(1-benzyl-2-oxo-1,2,5,6-tetrahydro-pyridin-3-yl)-propionic acid]",< 10,–
"O=C(O)CCC1=CCCN(Cc2ccc([N+](=O)[O-])cc2)C1=O [Example 65, 3-[1-(4-nitro-benzyl)-2-oxo-1,2,5,6-tetrahydro-pyridin-3-yl)-propionic acid]",> 10,–
"O=C(CCC1=CCCN(Cc2ccccc2)C1=O)Nc1ccccn1 [Example 69, 3-(1-benzyl-2-oxo-1,2,5,6-tetrahydro-pyridin-3-yl)-N-pyridin-2-yl-propionamide]",> 10,–
"CC(=O)Nc1ccc(CN2CCC=C(CCC(=O)NO)C2=O)cc1 [Example 74, 3-[1-(4-acetylamino-benzyl)-2-oxo-1,2,5,6-tetrahydro-pyridin-3-yl)-N-hydroxy-propionamide]",> 10,–
"O=C(CCC1=CCCN(Cc2ccc(NC(=O)c3ccccc3)cc2)C1=O)NO [Example 75, N-4-[5-(2-hydroxycarbamoyl-ethyl)-6-oxo-3,6-dihydro-2-pyridin-1-yl-methyl]-phenyl-benzamide]",< 10,–
"O=C(CCC1CCCN(CCc2ccccc2)C1=O)NO (stereo not drawn) [Example 81, N-hydroxy-3-(2-oxo-1-phenethyl-piperidine-3-yl)-propionamide]",> 10,–
"COc1ccc(CN2CCC=C(CC(=O)NO)C2=O)c(OC)c1 [Example 82, 2-[1-(2,4-dimethoxy-benzyl)-2-oxo-1,2,5,6-tetrahydro-pyridin-3-yl]-N-hydroxy-acetamide]",> 10,–
"O=C(CC1=CCCN(Cc2ccccc2)C1=O)NO [Example 83, 2-(1-benzyl-2-oxo-1,2,5,6-tetrahydro-pyridin-3-yl)-N-hydroxy-acetamide]",> 10,–
"COc1ccc(CN2CCC=C(CCCC(=O)NO)C2=O)cc1 [Example 95, 4-[1-(4-methoxy-benzyl)-2-oxo-1,2,5,6-tetrahydro-pyridin-3-yl]-N-hydroxy-butylamide]",> 10,–
"C=CCN1CCC=C(CCC(=O)NO)C1=O [Example 101, 3-(1-Allyl-2-oxo-1,2,5,6-tetrahydro-pyridin-3-yl)-N-hydroxy-propionamide]",> 10,–
"O=C(CCC1=CCCN(Cc2ccc3ccccc3c2)C1=O)NO [Example 103, N-hydroxy-3-(1-(naphthalene-2-yl-methyl)-2-oxo-1,2,5,6-tetrahydro-pyridin-3-yl)-propionamide]",< 10,–
"O=C(CCC1=CCCN(CCc2cccs2)C1=O)NO [Example 104, N-hydroxy-3-[2-oxo-1-(2-thiophen-2-yl-ethyl)-1,2,5,6-tetrahydro-pyridin-3-yl]-propionamide]",< 10,–
"O=C(CCC1=CCCCN(CCCc2ccccc2)C1=O)NO [Example 106, N-Hydroxy-3-[2-oxo-1-(3-phenyl-ethyl)-2,5,6,7-tetrahydro-1H-azepin-3-yl]-propionamide]",> 10,–

# More lines, main results first:
IC50 [µg/mL],SMILES,Cell growth inhibition
< 5,"O=C(CCC1=CCN(Cc2ccc3ccccc3c2)C1=O)NO [Example 49, N-hydroxy-3-(1-naphthalene-2-ylmethyl-2-oxo-2,5-dihydro-1H-pyrrol-3-yl)-propionamide]",–
< 10,"O=C(CCC1=CCCN(Cc2ccc([N+](=O)[O-])cc2)C1=O)NO [Example 59, N-hydroxy-3-[1-(4-nitro-benzyl)-2-oxo-1,2,5,6-tetrahydro-pyridin-3-yl)-propionamide]",–
< 10,O=C(CCC1=CCCN(CCc2ccccc2)C1=O)NO [Example 60],–
> 10,"COc1ccc(CN2CCC=C(CCC(=O)O)C2=O)c(OC)c1 [Example 63, 3-[1-(2,4-dimethoxybenzyl)-2-oxo-1,2,5,6-tetrahydro-pyridin-3-yl)-propionic acid]",–
> 10,"O=C(O)CCC1=CCCN(Cc2ccccc2)C1=O [Example 64, 3-(1-benzyl-2-oxo-1,2,5,6-tetrahydro-pyridin-3-yl)-propionic acid]",–
> 10,"O=C(CCC1=CCCN(CCc2ccccc2)C1=O)NOCc1ccccc1 [Example 73, N-benzyloxy-3-(2-oxo-1-phenethyl-1,2,5,6-tetrahydro-pyridin-3-yl)-propionamide]",–
> 10,"CS(=O)(=O)N(c1ccc(CN2CCC=C(CCC(=O)NO)C2=O)cc1)S(C)(=O)=O [Example 76, N-hydroxy-3-[1-(4-dimethylsulfonylamino-benzyl)-2-oxo-1,2,5,6-tetrahydro-pyridin-3-yl]-propionamide]",–
< 5,"Cc1ccc(S(=O)(=O)Nc2ccc(CN3CCC=C(CCC(=O)NO)C3=O)cc2)cc1 [Example 77, N-hydroxy-3-2-oxo-1-[4-(toluene-4-sulfonylamino)-benzyl-1,2,5,6-tetrahydro-pyridin-3-yl]-propionamide]",–
> 10,"O=C(CC1=CCCN(CCCCc2ccccc2)C1=O)NO [Example 86, N-hydroxy-2-[2-oxo-1-(4-phenyl-butyl)-1,2,5,6-tetrahydro-pyridin-3-yl]-N-hydroxy-acetamide]",–
> 10,"COc1ccc(CN2CCCC(CC(=O)NO)C2=O)c(OC)c1 (stereo not drawn) [Example 92, 2-[1-(2,4-dimethoxy-benzyl)-2-oxo-piperidine-3-yl]-N-hydroxy-acetamide]",–
> 10,"CN1CCC=C(CCC(=O)NO)C1=O [Example 102, N-hydroxy-3-(1-methyl-2-oxo-1,2,5,6-tetrahydro-pyridin-3-yl)-propionamide]",–
> 10,"O=C(CCC1=CCCCN(Cc2ccccc2)C1=O)NO [Example 105, 3-(1-Benzyl-2-oxo-2,5,6,7-tetrahydro-1H-azepin-3-yl)-N-hydroxy-propionamide]",–
> 10,"O=C(CCC1=CCCCN(CCCCc2ccccc2)C1=O)NO [Example 108, N-Hydroxy-3-[2-oxo-1-(4-phenyl-butyl)-2,5,6,7-tetrahydro-1H-azepin-3-yl]-propionamide]",–
